Where no end group is shown, it is not given here.
Assays:
[1] = tested on: RPE cells (TGFβ-stimulated); assay: RPE cell scratch wound migration assay; type: cell-based, porcine; details: 16 h
MDCK cells [2] = assay: Caspase 3/7 activity (Apo-ONE), MDCK cells; type: cell-based; details: overnight, increasing concentrations
Description: (§1) HEK293 and MDCK cells were seeded in triplicate wells and incubated overnight with the indicated concentration of TAT-P5 or TAT-F1. The next day 30 μL of medium was removed from each well and incubated with 30μL of CytoTox-ONE (Promega) reagent for 40 min. Fluorescence was then measured to assess LDH release. To assess Caspase 3/7 activity cells were assayed using Apo-ONE Homogenous Caspase-3/7 assay (Promega) according to manufactures instructions.
(§2) We next tested whether the inhibitors are toxic to cultured cells. MDCK and HEK293 cells were incubated with increasing concentrations of either TAT-F1 or TAT-P5 overnight before analysis of LDH release as a measure of necrosis or Caspase 3/7 activity to assess induction of apoptosis (Figure S2).
(§3) MDCK (A) and HEK 293 (B) cells were incubated overnight with TAT-F1 or TAT-P5 at the concentrations indicated. Cell toxicity was then assessed by measuring caspase 3/7 activity in cell extracts and release of LDH into the medium. No significant cell toxicity was observed.
(§4) (1 picture or pasted object on this page, not shown here)

HEK293 cells [3] = assay: Caspase 3/7 activity (Apo-ONE), HEK293 cells; type: cell-based; details: overnight, increasing concentrations
Description: as §1, §2, §3, §4

HEK293 cells [4] = assay: LDH release (CytoTox-ONE), HEK293 cells; type: cell-based; details: overnight, increasing concentrations
Description: as §1, §2, §3, §4

MDCK cells [5] = assay: LDH release (CytoTox-ONE), MDCK cells; type: cell-based; details: overnight, increasing concentrations
Description: as §1, §2, §3, §4

Sequence | RPE cell migration (scratch closure), in words [1] | cytotoxicity, Caspase 3/7 activity (apoptosis), MDCK (MDCK cells [2]) | cytotoxicity, Caspase 3/7 activity (apoptosis), HEK293 (HEK293 cells [3]) | cytotoxicity, LDH release (necrosis), HEK293 (HEK293 cells [4]) | cytotoxicity, LDH release (necrosis), MDCK (MDCK cells [5])
GRKKRRQRRRPWQDYIAEVPRSDYDLRPTGQD [TAT-scr, scrambled version of TAT-P5, negative control peptide] | had no effect |  |  |  | 
GRKKRRQRRRPWQGQEDYDRLRPASYPDTDVI [TAT-P5] |  | Neither assay revealed an increase in cytotoxicity | Neither assay revealed an increase in cytotoxicity | Neither assay revealed an increase in cytotoxicity | Neither assay revealed an increase in cytotoxicity
